Source: patent EP0886648B1 (ORTHO PHARMACEUTICAL CORPORATION, priority 1995, dated 1996)
Where two headings read alike, the source gives them in different places. One block for each compound: values may come before it. Positions of bridges follow the written chain, without caps; N, C: chain ends. Residues, ends and D or L forms follow the SMILES beside them. Chains are numbered I, II in the order given. No end group written: not given here.

How the values were obtained:
PIG-tailed EPO-R = target: T1, PIG-tailed EPO-R (Homo sapiens, UniProt P19235); assay: radioligand competition binding assay against PIG-tailed EPO-R immobilized on mAb179
T1 construct: comprised the extracellular domain of the EPO-receptor and was produced in recombinant host cells; thrombin cleavage site (internal); made in house
T1 sequence (P19235 25-250 limits assumed): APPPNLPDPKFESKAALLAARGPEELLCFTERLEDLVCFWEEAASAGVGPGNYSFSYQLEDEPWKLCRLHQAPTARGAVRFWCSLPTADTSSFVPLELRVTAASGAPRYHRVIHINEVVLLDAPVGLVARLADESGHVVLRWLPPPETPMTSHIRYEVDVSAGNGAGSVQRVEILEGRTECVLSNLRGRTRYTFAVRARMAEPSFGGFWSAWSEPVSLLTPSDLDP
Description: The immobilized receptor used in the panning and ELISA procedures comprised the extracellular domain of the EPO-receptor and was produced in recombinant host cells. This receptor molecule can be produced in a variety of different forms and host cells. One useful form is constructed with a signal peptide for protein secretion and for glycophospholipid membrane anchor attachment (this form of anchor attachment is called "PIG-tailing;" see, Caras and Weddell, 3 March. 1989, Science 243:1196-1198; and Lin et al., 10 Aug. 1990, Science 249:677-679, each of which is incorporated herein by reference). This system allows for cleavage of the receptor from the surface of the cells expressing the receptor and collection of the cleaved receptor quite easily. Preferably, a protease cleavage site, such as a thrombin cleavage site, is inserted between the HPAP epitope of the PIG-tailed receptor and the receptor itself.
The recombinant receptor protein was immobilized using the following methodology. Microtiter plates were coated within an and-receptor antibody and the wells which were to contain the immobilized receptor were treated with bovine serum albumin (BSA) to block non-specific binding. The PIG-tailed receptor having a thrombin cleavage site was added to the coated wells of the microtiter plate, which were then washed to remove unbound receptor.
IC50s were calculated for several of the peptides falling within the general motifs described above. (Each of these peptides were independently synthesized and are C-terminally amidated, but could be easily prepared as the free carboxy acid or as an ester or other carboxy amide.)
This peptide was incubated with streptavidin in PBS at a 4:1 molar ratio at room temperature for one hour. Following this, the complex was introduced into the PIG-tailed EPO-R binding assay for IC50 determination. Peptide that had not been complexed to streptavidin was also run in the same experiment. […] Since this comparison was made using the free peptide concentrations and not the effective complex concentration (theoretically 4-fold lower), the effect will be even greater.
Figures 13 and 14 show the in vitro EPOR binding and biological activities of the dimer. The affinity of the dimer was tested against the PIG-tailed EPOR immobilized on mAb179 in strip wells.

Female BDF1 mice = assay: polycythemic exhypoxic mouse bioassay; type: in vivo; settings: approximate equivalency
Description: Female BDF1 mice (18-20 gms) are subjected to a conditioning cycle (in hypobaric chambers) of 18 hrs. at 0.40 ± 0.02 atm. and 6 hrs. at ambien pressure for a period of 14 days.
Mice are maintained at ambient pressure for 72 hrs prior to administration of r-HuEPO or test samples. Test samples or r-HuEPO standard are diluted for injection into conditioned mice. The vehicle consists of: PBS containing 0.1 % BSA (w/v). For each dilution, 0.5 ml is administered subcutaneously into each of 10 mice. ^59Fe is administered 48 hrs. later. Blood samples are taken 48 hrs. following administration of ^59Fe. Hematocrits and radioactivity measurements are determined for each sample. Dose range and results (two different assays) are set forth in Table 23 and Figures 17A-17C, infra.

FDCP-1/hEPO-R = settings: for increase in potency over the parental peptide: EC50 of dimer vs GGTYSCHFGPLTWVCKPQGG
Description: One assay utilized FDCP-1, a growth factor dependent murine multi-potential primitive hematopoietic progenitor cell line (see, e.g.. Dexter et al. (1980) J. Exp. Med. 152:1036-1047), as the parental cell line. This cell line can proliferate, but not differentiate, when supplemented with WEHI3-conditioned media (a medium that contains IL-3, ATCC number T1B68).
In brief, the cells are grown to half stationary density in the presence of the necessary growth factors. The cells are then washed in PBS and starved for 16-24 hours in whole media without the growth factors. After determining the viability of the cells, stock solutions (in whole media without the growth factors) are made to give about 10^5 cells per 50 microliters. […] Cells (50 microliters) are added to each well and the cells are incubated 24-48 hours, at which point the negative controls should die or be quiescent. Cell proliferation is then measured by techniques known in the art, such as an MTT assay which correlates with ^3H-thymidine incorporation as an indication of cell proliferation (see, Mosmann (1983) J. Immunol. Methods 65:55).
In addition, this peptide was preincubated with streptavidin in serum-free HEPES-buffered RPMI at a 4:1 molar ratio, as above. The complex was tested for stimulation of cell proliferation in an FDCP-1/hEPO-R bioassay alongside free […] (Ahx-biotin)) and the unbiotinylated parental peptide, i.e., […].

[1] = test system: FDC-P1/ER (murine receptor); assay: peptide dependent growth of EPO-responsive cell line FDC-P1/ER (thymidine incorporation); type: cell-based
Description: • a. […] Cell Proliferation Assay: • i. […] Peptide is added to each well in triplicate.

[2] = target: T2, extracellular domain of the human erythropoietin receptor (EPO binding protein, EBP) (Homo sapiens, UniProt P19235); assay: immobilized EBP based [125I]EPO competition binding assay
T2 construct: made in house
T2 sequence (P19235 25-250 limits assumed): T1 sequence (P19235 25-250 limits assumed)
Description: The mixture was rocked gently for 30 minutes at room temperature, and the beads were allowed to settle for 1 hour at room temperature. The supernatant was removed and retained, and the beads were washed twice with 20 ml of coupling buffer.
Competitive binding analysis assays of candidate peptides were performed as outlined below. Individual peptides were dissolved in DMSO to prepare a stock solution of 1 mM. […] Initial assay points with no added peptide were included in each assay to determine total binding. Binding mixtures were incubated overnight at room temperature with gentle rocking. The beads were then collected using Micro-columns (Isolab, Inc., Akron, Ohio) and washed with 3 mL of wash buffer.

[3] = free peptide, C-terminally amidated, read-out: IC50

IC50 (PIG-tailed EPO-R; [3]): 352 nM
Compound: CC[C@H](C)[C@@H]1NC(=O)[C@@H]2CCCN2C(=O)CNC(=O)[C@H](CCSC)NC(=O)[C@H](CCCNC(=N)N)NC(=O)[C@@H](NC(=O)[C@H](C)NC(=O)[C@H](Cc2ccc(O)cc2)NC(=O)[C@@H](NC(=O)CNC(=O)CN)C(C)C)CSSC[C@@H](C(=O)N[C@@H](CO)C(=O)N2CCC[C@H]2C(=O)N[C@@H](CC(C)C)C(=O)NCC(=O)NCC(N)=O)NC(=O)[C@H](C(C)C)NC(=O)[C@H](Cc2c[nH]c3ccccc23)NC(=O)[C@H]([C@@H](C)O)NC1=O (HELM PEPTIDE1{G.G.V.Y.A.C.R.M.G.P.I.T.W.V.C.S.P.L.G.G.[am]}$PEPTIDE1,PEPTIDE1,6:R3-15:R3$$$V2.0; N-terminus assumed)

increase over the value for the parental peptide (PIG-tailed EPO-R; affinity vs GGTYSCHFGPLTWVCKPQGG): 200 fold
increase over the streptavidin complex (PIG-tailed EPO-R; affinity vs GGTYSCHFGPLTWVCKPQGGSSK (Ahx-biotin)-streptavidin complex): 5 fold
Compound: I: GGTYSCHFGPLTWVCKPQGGK-NH2 / II: GGTYSCHFGPLTWVCKPQGG (disulfide I:6-I:15, II:6-II:15 (inferred); amide I:21-II:C (inferred); C-terminus assumed) [AF12080]
Amount of Peptide Equivalent to 0.025 units of EPO (Female BDF1 mice): 0.035 nmol
increase in potency over the parental peptide (FDCP-1/hEPO-R): approximately 20 fold
increase in potency over the parental peptide (FDCP-1/hEPO-R; listed as dimeric peptide analog of GGTYSCHFGPLTWVCKPQGG): 20 fold

IC50 (PIG-tailed EPO-R; [3]): 67000 nM
Compound: VGNYMAHMGPITWVCRPGG-NH2

IC50 (PIG-tailed EPO-R; [3]): 1670 nM
Compound: CC(C)C[C@H](NC(=O)CNC(=O)CN)C(=O)N[C@@H](Cc1ccc(O)cc1)C(=O)N[C@@H](CC(C)C)C(=O)N[C@H]1CSSC[C@@H](C(=O)NCC(=O)N[C@@H](Cc2ccc(O)cc2)C(=O)N[C@@H](CCCCN)C(=O)NCC(=O)NCC(N)=O)NC(=O)[C@H](CC(=O)O)NC(=O)[C@H](Cc2c[nH]c3ccccc23)NC(=O)[C@H]([C@@H](C)O)NC(=O)[C@H](C(C)C)NC(=O)[C@@H]2CCCN2C(=O)CNC(=O)[C@H](Cc2ccccc2)NC(=O)[C@H](CCCNC(=N)N)NC1=O (HELM PEPTIDE1{G.G.L.Y.L.C.R.F.G.P.V.T.W.D.C.G.Y.K.G.G.[am]}$PEPTIDE1,PEPTIDE1,6:R3-15:R3$$$V2.0; N-terminus assumed)

Compound: CC(C)C[C@@H]1NC(=O)[C@@H]2CCCN2C(=O)CNC(=O)[C@H](Cc2ccccc2)NC(=O)[C@H](Cc2c[nH]cn2)NC(=O)[C@@H](NC(=O)[C@H](CO)NC(=O)[C@H](Cc2ccc(O)cc2)NC(=O)[C@@H](NC(=O)CNC(=O)CN)[C@@H](C)O)CSSC[C@@H](C(=O)N[C@@H](CCCCN)C(=O)N2CCC[C@H]2C(=O)N[C@@H](CCC(N)=O)C(=O)NCC(=O)NCC(=O)N[C@@H](CO)C(=O)N[C@@H](CO)C(=O)N[C@@H](CCCCNC(=O)CCCCCNC(=O)CCCC[C@@H]2SC[C@@H]3NC(=O)N[C@@H]32)C(N)=O)NC(=O)[C@H](C(C)C)NC(=O)[C@H](Cc2c[nH]c3ccccc23)NC(=O)[C@H]([C@@H](C)O)NC1=O [AF11505] (HELM PEPTIDE1{G.G.T.Y.S.C.H.F.G.P.L.T.W.V.C.K.P.Q.G.G.S.S.K.[am]}|PEPTIDE2{[O=C1N[C@H]2[C@H](CS[C@H]2CCCCC(=O)[*:2])N1].[O=C(CCCCCN[*:1])[*:2]]}$PEPTIDE1,PEPTIDE2,23:R3-2:R2|PEPTIDE1,PEPTIDE1,6:R3-15:R3$$$V2.0; N-terminus and C-terminus assumed; bridges inferred)
EPO-ED50 (FDCP-1/hEPO-R; free peptides): approximately 1 µM

Compound: TIAQYICYMGPETWECRPSPKA [AF11654]
Amount of Peptide Equivalent to 0.025 units of EPO (Female BDF1 mice): 11 to 21 nmol

IC50 (PIG-tailed EPO-R; [3]): 420 nM
Compound: CC[C@H](C)[C@@H]1NC(=O)[C@@H]2CCCN2C(=O)CNC(=O)[C@H](Cc2ccccc2)NC(=O)[C@H](Cc2c[nH]cn2)NC(=O)[C@@H](NC(=O)[C@H](CCSC)NC(=O)[C@H](Cc2ccc(O)cc2)NC(=O)[C@H](CC(N)=O)NC(=O)CNC(=O)[C@@H](N)C(C)C)CSSC[C@@H](C(=O)N[C@@H](CCCNC(=N)N)C(=O)N2CCC[C@H]2C(=O)NCC(=O)NCC(=O)NCC(N)=O)NC(=O)[C@H](C(C)C)NC(=O)[C@H](Cc2c[nH]c3ccccc23)NC(=O)[C@H]([C@@H](C)O)NC1=O (HELM PEPTIDE1{V.G.N.Y.M.C.H.F.G.P.I.T.W.V.C.R.P.G.G.G.[am]}$PEPTIDE1,PEPTIDE1,6:R3-15:R3$$$V2.0; N-terminus assumed)

IC50 (PIG-tailed EPO-R; [3]): 179 nM
Compound: CSCC[C@@H]1NC(=O)[C@H](CCCNC(=N)N)NC(=O)[C@@H](NC(=O)[C@H](Cc2c[nH]cn2)NC(=O)[C@H](Cc2ccc(O)cc2)NC(=O)[C@H](CC(=O)O)NC(=O)CNC(=O)CN)CSSC[C@@H](C(=O)N[C@@H](CCCCN)C(=O)N2CCC[C@H]2C(=O)N[C@@H](CC(C)C)C(=O)NCC(=O)NCC(N)=O)NC(=O)[C@H](C(C)C)NC(=O)[C@H](Cc2c[nH]c3ccccc23)NC(=O)[C@H]([C@@H](C)O)NC(=O)[C@H](CC(C)C)NC(=O)[C@@H]2CCCN2C(=O)CNC1=O (HELM PEPTIDE1{G.G.D.Y.H.C.R.M.G.P.L.T.W.V.C.K.P.L.G.G.[am]}$PEPTIDE1,PEPTIDE1,6:R3-15:R3$$$V2.0; N-terminus assumed)

IC50 (PIG-tailed EPO-R; equilibrium competition binding assay, strip wells, read-out: affinity): 200 nM
IC50 (PIG-tailed EPO-R; [3]): 237 nM
IC50 [2]: 5000 nM
EC50 (FDCP-1/hEPO-R): 400 nM
Compound: CC(C)C[C@@H]1NC(=O)[C@@H]2CCCN2C(=O)CNC(=O)[C@H](Cc2ccccc2)NC(=O)[C@H](Cc2c[nH]cn2)NC(=O)[C@@H](NC(=O)[C@H](CO)NC(=O)[C@H](Cc2ccc(O)cc2)NC(=O)[C@@H](NC(=O)CNC(=O)CN)[C@@H](C)O)CSSC[C@@H](C(=O)N[C@@H](CCCCN)C(=O)N2CCC[C@H]2C(=O)N[C@@H](CCC(N)=O)C(=O)NCC(=O)NCC(N)=O)NC(=O)[C@H](C(C)C)NC(=O)[C@H](Cc2c[nH]c3ccccc23)NC(=O)[C@H]([C@@H](C)O)NC1=O [RWJ 61233] (HELM PEPTIDE1{G.G.T.Y.S.C.H.F.G.P.L.T.W.V.C.K.P.Q.G.G.[am]}$PEPTIDE1,PEPTIDE1,6:R3-15:R3$$$V2.0)
EPO-ED50 [1]: 100 nM
